Target: IDH1-R132H recombinant protein (Homo sapiens (Human), UniProt O75874, R132H)
Test: IDH1-R132H enzymatic assay (NADPH consumption, diaphorase/resazurin readout)
Assay type: biochemical
Settings: inhibition of NADPH consumption, 30 nM IDH1-R132H; read-out: Enzyme IDH1 R132H IC50
Experimental: Assays were performed in a 384-well black plate. An aliquot of 250 nL of compound was incubated with 10 μL of 30 nM IDH1-R132H or 10 nM IDH1-R132C recombinant protein in assay buffer (50 mM Tris pH=7.5, 150 mM NaCl, 5 mM MgCl2, 0.1% (w/v) Bovine Serum Albumin, and 0.01% Triton X-100) in each well at 25° C. for 15 minutes. After the plate was centrifuged briefly, an aliquot of 10 μL of 2 mM α-ketoglutarate and 20 μM NADPH solution prepared in assay buffer was then added to each well and the reaction was maintained at 25° C. for 45 minutes. An aliquot of 10 μL of diaphorase solution (0.15 U/mL diaphorase and 30 μM Resazurin in assay buffer) was added to each well. The plate was maintained at 25° C. for 15 minutes and then read on a plate reader with excitation and emission wavelengths at 535 nm and 590 nm, respectively. The IC50 of a given compound was calculated by fitting the dose response curve of inhibition of NADPH consumption at a given concentration with the four parameter logistic equation.

Sequence of IDH1-R132H recombinant protein (O75874 whole entry R132H): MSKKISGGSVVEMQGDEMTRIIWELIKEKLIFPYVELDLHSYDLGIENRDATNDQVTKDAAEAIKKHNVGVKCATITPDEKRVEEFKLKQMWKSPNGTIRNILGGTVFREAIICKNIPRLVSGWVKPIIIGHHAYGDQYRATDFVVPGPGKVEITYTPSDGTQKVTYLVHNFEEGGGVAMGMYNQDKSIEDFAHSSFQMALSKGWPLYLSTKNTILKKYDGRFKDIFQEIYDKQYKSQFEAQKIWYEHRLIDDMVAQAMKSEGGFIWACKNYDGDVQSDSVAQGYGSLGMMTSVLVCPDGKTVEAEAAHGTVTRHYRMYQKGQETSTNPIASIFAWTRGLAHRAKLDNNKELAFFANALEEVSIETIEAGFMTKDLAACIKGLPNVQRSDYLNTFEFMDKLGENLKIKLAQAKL

`Cc1ccc2cc(NCc3cc4cc(Cl)ccc4[nH]c3=O)ccc2n1` [Compound I-32, 6-chloro-3-{[(2-methylquinolin-6-yl)amino]methyl}-1,2-dihydroquinolin-2-one] and `Cc1ccc2cc(NCc3cc4cc(C)c(C)cc4[nH]c3=O)ccc2n1` [Compound I-37, 6,7-dimethyl-3-{[(2-methylquinolin-6-yl)amino]methyl}-1,2-dihydroquinolin-2-one] cannot be ordered by IC50: over 10 µM for the first, over 10 µM for the second.

First: O=C1CCCc2c(NCc3cc4cc(Cl)ccc4[nH]c3=O)cccc21 [Compound I-22, 6-chloro-3-{[(5-oxo-5,6,7,8-tetrahydronaphthalen-1-yl)amino]methyl}-1,2-dihydroquinolin-2-one]
Second: O=c1[nH]c2ccc(Cl)cc2cc1CNc1cccc2c1OCC2 [Compound I-9, 6-chloro-3-{[(2,3-dihydro-1-benzofuran-7-yl)amino]methyl}-1,2-dihydroquinolin-2-one]
The IC50 of the first is higher: over 10 µM for the first, 1 to 10 µM for the second.

First: CC(C)(C)c1ccc2[nH]c(=O)c(CNc3ccc4[nH]ncc4c3)cc2c1 [Compound I-41, 6-tert-butyl-3-{[(1H-indazol-5-yl)amino]methyl}-1,2-dihydroquinolin-2-one]
Second: O=c1[nH]c2ccc(Cl)cc2cc1CNc1ccc2cn[nH]c2c1 [Compound I-25, 6-chloro-3-{[(1H-indazol-6-yl)amino]methyl}-1,2-dihydroquinolin-2-one]
The IC50 of the first is lower: 1 to 10 µM for the first, over 10 µM for the second.

`COc1ccc2[nH]c(=O)c(CNc3ccc4ncsc4c3)cc2c1` [Compound I-36, 3-{[(1,3-benzothiazol-6-yl)amino]methyl}-6-methoxy-1,2-dihydroquinolin-2-one] and `COc1ccc2[nH]c(=O)c(CNc3ccc4ncccc4c3)cc2c1` [Compound I-39, 6-methoxy-3-{[(quinolin-6-yl)amino]methyl}-1,2-dihydroquinolin-2-one] cannot be ordered by IC50: over 10 µM for the first, over 10 µM for the second.

First: Cn1c(=O)oc2ccc(NCc3cc4cc(Cl)ccc4[nH]c3=O)cc21 [Compound I-2, 6-chloro-3-{[(3-methyl-2-oxo-2,3-dihydro-1,3-benzoxazol-5-yl)amino]methyl}-1,2-dihydroquinolin-2-one]
Second: O=C1Cc2ccc(NCc3cc4cc(Cl)ccc4[nH]c3=O)cc2N1 [Compound I-13, 6-chloro-3-{[(2-oxo-2,3-dihydro-1H-indol-6-yl)amino]methyl}-1,2-dihydroquinolin-2-one]
The IC50 of the first is lower: 0.1 to 1 µM for the first, over 10 µM for the second.

`Cc1cc2cc(CNc3ccc4cn[nH]c4c3)c(=O)[nH]c2cc1C` [Compound I-31, 3-{[(1H-indazol-6-yl)amino]methyl}-6,7-dimethyl-1,2-dihydroquinolin-2-one] and `COc1ccc2[nH]c(=O)c(CNc3ccc4cn[nH]c4c3)cc2c1` [Compound I-34, 3-{[(1H-indazol-6-yl)amino]methyl}-6-methoxy-1,2-dihydroquinolin-2-one] cannot be ordered by IC50: over 10 µM for the first, over 10 µM for the second.

First: C[C@H](Nc1nccc2c1CCN2S(C)(=O)=O)c1cc2cc(Cl)ccc2[nH]c1=O [Compound I-43, 6-chloro-3-[(1S)-1-({1-methanesulfonyl-1H,2H,3H-pyrrolo[3,2-c]pyridin-4-yl}amino)ethyl]-1,2-dihydroquinolin-2-one]
Second: O=c1[nH]c2ccc(Cl)cc2cc1CNc1ccc2scnc2c1 [Compound I-29, 3-{[(1,3-benzothiazol-5-yl)amino]methyl}-6-chloro-1,2-dihydroquinolin-2-one]
The IC50 of the first is lower: 1 to 10 µM for the first, over 10 µM for the second. The first is the more potent here.

First: O=c1[nH]c2ccc(Cl)cc2cc1CNc1cccc2cccnc12 [Compound I-8, 6-chloro-3-{[(quinolin-8-yl)amino]methyl}-1,2-dihydroquinolin-2-one]
Second: O=c1[nH]c2ccc(Cl)cc2cc1CNc1ccc2c(c1)OCCO2 [Compound I-33, 6-chloro-3-{[(2,3-dihydro-1,4-benzodioxin-6-yl)amino]methyl}-1,2-dihydroquinolin-2-one]
The IC50 of the first is lower: 1 to 10 µM for the first, over 10 µM for the second.

Molecule `COc1ccc2[nH]c(=O)c(CNc3ccc4sc(C)nc4c3)cc2c1` [Compound I-21, 6-methoxy-3-{[(2-methyl-1,3-benzothiazol-5-yl)amino]methyl}-1,2-dihydroquinolin-2-one] has an IC50 of over 10 µM.
